These results are taken from US10799442B2, “Compounds useful in the treatment and/or care of the skin, hair, nails, and/or mucous membranes” (LUBRIZOL ADVANCED MATERIALS, INC., priority 2015, dated 2020).

In assay [1] the test system is Keratin 10. Briefly: Keratin expression in reconstructed human epidermal tissue (RHE), immunohistochemistry (Keratin 10). The class given is cell-based. To be noted: Keratin 10 immunofluorescence, 10 μg/ml, 48 hours. An excerpt: (§1) The human epidermis continuously renews itself by a process of proliferation and differentiation of keratinocytes. Basal epidermal stem cells proliferate and the differentiation process begins above the basal layer, whereby the differentiating keratinocytes slowly move outward from the basal membrane, migrate through the epidermis, and undergo terminal differentiation culminating in fully differentiated dead cells on the surface. The process is a dynamic flux so that surface cells are continuously sloughed and replaced by inner cells differentiating and moving outward. […] To study the ability of the peptides of the invention to recover the basal keratinocyte state, the expression of Keratins 10 and 14 is evaluated by immunohistochemistry in a three-dimensional culture system, Reconstructed Human Epidermal Tissue (RHE), that reproduces in vitro the histological organization of human epidermis in situ. […]
(§2) The expression of Keratins 10 and 14 is evaluated by immunohistochemistry with a specific primary antibody and a fluorescently labelled secondary antibody. […] At the end of the incubation, slides are washed with 0.2% solution of Tween 20 in PBS and are incubated with Alexa Fluor® 488 Goat anti-mouse IgG (H+L) secondary antibody (Invitrogen, green fluorescence emission dye) for 1 hour at room temperature in a dark humidified chamber. […]

The test system of assay [2] is Keratin 14. The experiment in a line: Keratin expression in reconstructed human epidermal tissue (RHE), immunohistochemistry (Keratin 14). The class given is cell-based. Particulars: Keratin 14 immunofluorescence, 10 μg/ml, 48 hours.
Description: as §1, §2

In the case of “Ac-QEMRMQ-OH [DD14024, Ac-Gln-Glu-Met-Arg-Met-Gln-OH]”, the “Fold induction respect to basal conditions (%)” value in assay [1] was determined as 28.70%; in assay [2], 425.83%.
